Here are results for 63 molecules from the OPERA property sets (Mansouri et al. 2018).

`CCCN(CCC)C(=O)C(CCC(=O)O)NC(=O)c1ccccc1` (configuration not stated): the melting point was determined as 144 °C.
Same read-out and setting: for `Ic1ccc(I)c(I)c1I` the value was 136 °C.
`O=C(O)c1cccs1` came in with a melting point of 130 °C.
Turning to `Fc1ccc(F)c(F)c1F`, the boiling point was found to be 94.3 °C, the log10 vapour pressure (mmHg) was 1.69 and the melting point was -42 °C.
The molecule `Cc1ccc(NC(=O)N(C)C)cc1` came in with a log10 Koc (L/kg) of 1.51.
`C=C(Cl)c1ccccc1`: the boiling point amounted to 199 °C and the melting point is -23 °C.
As for `Nc1cccc(I)c1`, the melting point worked out at 33 °C.
Take `O=C(O)c1ccc(C(=O)O)cc1`: the log10 vapour pressure (mmHg) was -5.04 and the ready biodegradability entry is listed as “readily biodegradable”.
`COc1ccc2[nH]cc(CCN)c2c1` yielded a melting point of 122 °C.
Same read-out and setting: the same measure for `NNC(=O)c1ccc(O)cc1`: 265 °C.
In turn, `O=CC(Cl)Cl` yielded a boiling point of 89.2 °C and a log10 vapour pressure (mmHg) of 1.74.
Regarding `CCOP(=S)(OCC)SCC(=O)NC(C)C`, the melting point came out at 28.5 °C.
In turn, `CC(C)OC(=O)c1cc(C(=O)OC(C)C)cc([N+](=O)[O-])c1` registered a melting point of 65 °C.
`CCCCCCCCCCCCN1CC(C(=O)OC)CC1=O` (configuration not stated) came in with a melting point of 27.5 °C.
On the same count and under the same terms, for `CC1(C)CCC(=Cc2ccc(Cl)cc2)C1(O)Cn1cncn1` (configuration not stated) the value was 140 °C; for `CC(=O)[C@@]1(O)CC[C@H]2[C@@H]3CC[C@H]4C[C@@H](O)CC[C@]4(C)[C@H]3CC[C@@]21C`, 265 °C.
`CC[C@H](C)CC=O` showed a boiling point of 121 °C.
Take `N#Cc1ccc(O)cc1`: the melting point came to 112 °C and the ready biodegradability entry is “not readily biodegradable”.
For the molecule `CC(C)C1=CC(=O)C(C)CC1` (configuration not stated), the boiling point was 236 °C.
In turn, `CCOC(=O)C(C#N)=Cc1ccccc1` showed a melting point of 51 °C.
As to `CC(=O)C(C)Cl` (configuration not stated), the boiling point was 115 °C.
As to `O=C1c2ccccc2C(=O)c2c1cccc2S(=O)(=O)O`, the ready biodegradability entry is reported as “not readily biodegradable”.
As for `CCc1ccccc1`, the boiling point worked out at 136 °C, the log10 Henry constant (atm·m³/mol) was -2.1, the log10 Koa was 3.74 and the log10 Koc (L/kg) turned out to be 2.23. The log10 biodegradation half-life (days) was 0.903, the log10 vapour pressure (mmHg) amounted to 0.982 and the melting point was -94.9 °C.
`O=[N+]([O-])c1cc(Cl)c(Cl)c(Cl)c1Cl` came in with a log10 Koc (L/kg) of 4.23.
`Nc1cccnc1`: the boiling point was determined as 252 °C, the melting point was found to be 64.5 °C and the ready biodegradability result was “not readily biodegradable”.
`Nc1ccc2c(c1N)C(=O)c1ccccc1C2=O` returned a melting point of 290 °C.
`S=C(SSC(=S)N1CCCCC1)N1CCCCC1` yielded a melting point of 138 °C.
`CC(C)=CC(=O)C=C(C)C`: the boiling point worked out at 198 °C, the log10 vapour pressure (mmHg) was -0.557 and the melting point was 28 °C.
With `CC1(C)[C@H](C(=O)O[C@H](C#N)c2cccc(Oc3ccccc3)c2)[C@@H]1/C=C(\Cl)C(F)(F)F` (single isomer, unassigned), the melting point was found to be 49.2 °C.
As for `Sc1ccccc1`, the boiling point was found to be 169 °C, the log10 vapour pressure (mmHg) amounted to 0.286, the melting point was -14.9 °C and the ready biodegradability result is “not readily biodegradable”.
Molecule `O=Cc1ccccn1` had a boiling point of 180 °C.
Consider `O=C[C@H](O)[C@@H](O)[C@H](O[C@@H]1O[C@H](CO)[C@@H](O)[C@H](O)[C@H]1O)[C@H](O)CO`, for which the melting point was 240 °C.
Regarding `CCCCCCOC`, the boiling point came to 126 °C.
Take `CCOC(=O)CNc1ccccc1`: the boiling point was 274 °C and the melting point worked out at 58 °C.
`CC1CCCCC1`: the boiling point was determined as 101 °C, the log10 Henry constant (atm·m³/mol) was -0.367, the log10 Koa stood at 3.03 and the log10 biodegradation half-life (days) was 0.602. For the same molecule, the log10 vapour pressure (mmHg) was 1.66 and the melting point is -127 °C.
`O=CN(O)CC(=O)O` had a melting point of 120 °C.
Molecule `CCCC(=O)C(=O)CCC` gave a boiling point of 168 °C.
As to `CCCNC(=O)NS(=O)(=O)c1ccc(Cl)cc1`, the melting point was 128 °C.
`COC(=O)CCCl`: the boiling point was 156 °C.
Consider `CCCNC`, for which the boiling point came out at 62 °C.
Take `CC(C)(C)c1cc(C(=O)O)c(O)c(C(C)(C)C)c1`: the ready biodegradability entry is “not readily biodegradable”.
For `CC(=O)c1occc1O`, the melting point worked out at 100 °C.
Take `CCCCOCCOC(C)=O`: the boiling point worked out at 192 °C, the log10 Henry constant (atm·m³/mol) was -5.26, the log10 vapour pressure (mmHg) was -0.426 and the melting point is -63 °C.
`Clc1ccc(-c2ccccc2)cc1Cl`: the log10 Henry constant (atm·m³/mol) was -3.85.
Take `CCN1C[C@]2(COC)[C@H](O)C[C@H](OC)[C@]34C1[C@H]([C@H](OC)[C@H]23)[C@]1(OC(C)=O)[C@H]2[C@@H](OC(=O)c3ccccc3)[C@](O)(C[C@H]24)[C@@H](OC)[C@@H]1O`: the melting point is 204 °C.
On the same count and under the same terms, for `CC(COc1ccccc1)N(CCCl)Cc1ccccc1` (configuration not stated) the value was 39 °C.
Take `Cc1cc2ccccc2cn1`: the boiling point was 249 °C and the melting point turned out to be 68 °C.
In the case of `C=CCOc1nc(OCC=C)nc(OCC=C)n1`, the melting point turned out to be 27 °C.
On to `COc1c(Cl)c(Cl)c([N+](=O)[O-])c(Cl)c1Cl`, for which the melting point is 103 °C.
Take `CCC(S)CC`: the boiling point was determined as 105 °C and the melting point is -111 °C.
`O=S(=O)(Cl)CCCl` showed a boiling point of 202 °C.
The molecule `CCOC(=O)N(c1ccccc1)c1ccccc1` returned a boiling point of 360 °C and a melting point of 72 °C.
`CCOC(=O)CCC=O` gave a boiling point of 162 °C.
Take `O=C(CCl)CCl`: the boiling point came out at 173 °C, the log10 vapour pressure (mmHg) is -0.202 and the melting point was 45 °C.
Turning to `Clc1cc(Cl)nc(Cl)n1`, the boiling point was 212 °C and the melting point stood at 22.5 °C.
As for `CCCNC(=O)OCC`, the boiling point stood at 192 °C.
With `CCC(C)C1(CC)C(=O)NC(=S)NC1=O` (configuration not stated), the melting point is 169 °C.
In the case of `O=C(O)CBr`, the boiling point is 208 °C, the log10 Henry constant (atm·m³/mol) was -8.19, the log10 vapour pressure (mmHg) is -0.926 and the melting point is 50 °C.
Molecule `O=[N+]([O-])c1ccc(F)c([N+](=O)[O-])c1` came in with a boiling point of 296 °C and a melting point of 25.8 °C.
In turn, `CCC(C(C)=O)C(C)=O` yielded a boiling point of 178 °C.
On to `CC(C)C(O)C(C)(C)C` (configuration not stated), for which the boiling point stood at 150 °C and the melting point is -13 °C.
As to `CCC(C)n1c(=O)[nH]c(C)c(Br)c1=O` (configuration not stated), the log10 Koc (L/kg) turned out to be 1.6, the log10 vapour pressure (mmHg) was -6.51 and the melting point is 158 °C.
`ClCCOCCOCCCl`: the boiling point amounted to 232 °C, the log10 vapour pressure (mmHg) was -1.22, the melting point is -31.5 °C and the ready biodegradability entry was “not readily biodegradable”.
